From patent US6949564B2, “NPY-5 antagonists” (Pfizer Inc., priority 2002, dated 2005)

Tested on: endogenous NPY response (Y1) of human Bowes melanoma cells (HMCB)
Test: Block of endogenous NPY response in host human Bowes melanoma cells
Conditions: at 10 uM; host Bowes melanoma cells with low levels of Y1 responses

SMILES: NC(N)=NCCC[C@@H](NC(=O)C(c1ccccc1)c1ccccc1)C(=O)NCc1ccc(O)cc1 [BIBP3226]
- block of the endogenous NPY response: completely blocks
